In data set [1] the test system is Tetranychus urticae (two-spotted spider mite). Put plainly: JA seed treatment, tomato plants challenged with two-spotted spider mite. It counts as in vivo. Conditions: tomato cv. Carousel. On the procedure: (§1) Tomato, pepper, maize and wheat seeds were treated with 3 mM JA or 1.5 mM JA solutions or with 3 mM methyl jasmonate (MeJA) or with deionised water containing 42.8 mM ethanol (control) by full submersion of up to 40 seeds in a Petri dish of solution wrapped in foil for a period of 24 hours at 4° C. in a fridge. A temperature of 4° C. was used both to prevent degradation of the jasmonic acid solutions and to prevent germination of the seeds.
The seeds were then removed from the treatment solution and washed in 1 liter of deionised water for 5 minutes to remove the JA or MeJA coating the outside of the seeds.
Tomato seeds were sown in rockwool blocks and grown on peat-based compost in glass houses at 12° C.-28° C. under artificial light on a 16 hour light and 8 hour dark cycle for 48, 56 or 70 days.
Tomato plants were then challenged with Tetranychus urticae (two-spotted spider mite) which were allowed to feed for 9 days, Manduca sexta (tobacco hornworm) caterpillars which were allowed to feed for 4 days or Myzus persicae (aphid), which were allowed to feed for 10 or 12 days. In each case these organisms were restricted to the plant on which they had originally been placed. Pepper plants were challenged with Myzus persicae (aphid), which were allowed to feed for 2 weeks. Maize and wheat plants were challenged with Spodoptera exempta caterpillars which were allowed to feed for 2 days (maize) or 3 days (wheat).
The effect of Tetranychus urticae on plants was measured by means of counting the number of live and dead mites on each plant and the number of mite eggs present using a dissecting microscope.
Seeds of a UK commercial F1 hybrid tomato variety (cv. Carousel) were treated with either 1.5 or 3.0 mM jasmonic acid (JA) and 42.8 mM ethanol in deionised H2O for a period of 24 hours at 4° C. in the dark. Those seeds were then removed from solution and washed in deionised H2O only to remove the JA coating the outside of the seed. Those seed were then germinated in a commercial manner using rockwool blocks and were grown on under glasshouse conditions appropriate to this crop. Plants were challenged with two-spotted spider mite (Tetranychus urticae) 7 weeks after treatment a common crop pest, acting here as a “model herbivore”.

Data set [2] deals with Manduca sexta (tobacco hornworm). Put plainly: JA seed treatment, tomato plants challenged with Manduca sexta caterpillars. It counts as in vivo. Particulars: tomato cv. Carousel, seed treatment 1.5 mM JA, 4 days feeding. The procedure:
as §1
Tomato plants were then challenged with Tetranychus urticae (two-spotted spider mite) which were allowed to feed for 9 days, Manduca sexta (tobacco hornworm) caterpillars which were allowed to feed for 4 days or Myzus persicae (aphid), which were allowed to feed for 10 or 12 days. In each case these organisms were restricted to the plant on which they had originally been placed. Pepper plants were challenged with Myzus persicae (aphid), which were allowed to feed for 2 weeks. […]
The effect of Manduca sexta or Spodoptera exempta on plants was determined by measurement of the leaf area eaten, measured using a leaf area meter.
Seeds of a UK commercial F1 hybrid tomato variety (cv. Carousel) were treated with 1.5 mM jasmonic acid (JA), and plants grown in conditions appropriate to this crop (as described under Example 1). […] Caterpillars were allowed to feed on the plants for four days and the area of grazed leaves was then measured. […]

A further data set concerns Myzus persicae. Briefly: JA or MeJA seed treatment, tomato plants challenged with aphids. The format is in vivo. Particulars: tomato cv. Carousel, seed treatment 3.0 mM JA, challenged 10 weeks after sowing. The procedure:
Tomato, pepper, maize and wheat seeds were treated with 3 mM JA or 1.5 mM JA solutions or with 3 mM methyl jasmonate (MeJA) or with deionised water containing 42.8 mM ethanol (control) by full submersion of up to 40 seeds in a Petri dish of solution wrapped in foil for a period of 24 hours at 4° C. in a fridge. A temperature of 4° C. was used both to prevent degradation of the jasmonic acid solutions and to prevent germination of the seeds. The seeds were then removed from the treatment solution and washed in 1 liter of deionised water for 5 minutes to remove the JA or MeJA coating the outside of the seeds. Tomato seeds were sown in rockwool blocks and grown on peat-based compost in glass houses at 12° C.-28° C. under artificial light on a 16 hour light and 8 hour dark cycle for 48, 56 or 70 days. Tomato plants were then challenged with Tetranychus urticae (two-spotted spider mite) which were allowed to feed for 9 days, Manduca sexta (tobacco hornworm) caterpillars which were allowed to feed for 4 days or Myzus persicae (aphid), which were allowed to feed for 10 or 12 days. In each case these organisms were restricted to the plant on which they had originally been placed. Pepper plants were challenged with Myzus persicae (aphid), which were allowed to feed for 2 weeks. Maize and wheat plants were challenged with Spodoptera […] caterpillars which were allowed to feed for 2 days (maize) or 3 days (wheat). The effect of Myzus persicae on plants was determined by counting the aphid population on each plant under a dissecting microscope at ×10 magnification. Seeds of a UK commercial F1 hybrid tomato variety (cv. Carousel) were treated with 3.0 mM jasmonic acid (JA) and 42.8 mM ethanol in deionised H2O for a period of 24 hours at 4° C. in the dark. […] Aphids were allowed to feed on the plants for twelve days and the aphid population was measured at intervals over this period. […]

Data set [3] in a line: Dissolution of JA in water when preparing the solution. The format is physicochemical. Particulars: 250 mg JA; ethanol needed first. On the procedure: 6. 1 ml of ethanol was added to the vial of JA using a 1000 μl Gilson pipette, the lid of the vial replaced and the vial shaken to dissolve the JA.

Regarding `CC/C=C\C[C@H]1C(=O)CC[C@@H]1CC(=O)O` [JA, jasmonic acid], in data set [1] (8 weeks after application of the JA to the seeds), the “Observed resistance induced against spider mite” value was “significant”. Moreover, the “Visual damage caused by red spider mite attack (pale stippling of the leaf surface)” value in data set [1] (seed treatment 3.0 mM JA vs control, challenged 7 weeks after treatment) is on record as “substantially reduced”. Besides, the “Reproductive rate of the mite measured by egg production (eggs per adult female) compared with control plants” value in data set [1] (seed treatment 1.5 or 3.0 mM JA, 10 replicates) was “significant reduction”. Moreover, the “Population of two-spotted spider mite on the leaves (number of live mites) compared with control plants” value in data set [1] (seed treatment 1.5 or 3.0 mM JA, mites fed 9 days, 10 replicates) was “significant reduction”. For the same compound, the “Caterpillar growth, less than those feeding on controls” value in data set [2] is 20%. The “Leaf area remaining after grazing, compared with controls” value in data set [2] (challenged 8 weeks after seed treatment) was “significantly higher”. In the data set on Myzus persicae (12 days feeding), the “Aphid population compared with control plants” value was “significant (p<0.05) reduction”. For the same compound, the “Aphid population compared with control plants, treated seed stored before sowing” value in the data set on Myzus persicae (seed dried and stored at 4 C for two months before sowing, 10 days feeding) is “significant (p<0.05) reduction”. The Solubility in water result in data set [3] was “will not dissolve in water directly”.

The values above are taken from patent publication US8507756B2, “Plant protection” (Plant Bioscience Limited, priority 2007, dated 2013).
